For test [1], the target named is GDP-bound KRAS protein (aa 1-169), containing both G12C and C118A amino acid substitutions (Homo sapiens, UniProt P01116, C118A/G12C). Kind of test: Coupled nucleotide exchange assay (SOS-mediated, AlphaScreen). In kind it is biochemical. The settings on record: for Coupled exchange IC50 (2 h): 2 h compound pre-incubation.
Test [2] deals with Phosphorylation of ERK1/2 in MIA PaCa-2 cells. Description: Phospho-ERK1/2 MSD assay in MIA PaCa-2 cells. It counts as cell-based. An outline of the steps: (§1)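 Following a 2 or 4 h incubation with titrated compound, cells receive a 10 min pulse of 10 ng/mL EGF. Phospho-ERK1/2 in RIPA lysates is then quantified by MSD immunoassay, and IC50 values come from a four-parameter logistic model.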

The subject of test [3] is Phosphorylation of ERK1/2 in A549 cells. Kind of test: Phospho-ERK1/2 MSD assay in A549 cells. In kind it is cell-based. The conditions noted are these: Homo sapiens. An outline of the steps:
as §1

The mark [4] stands for this setting: Homo sapiens, MIA PaCa-2, 2 h, read-out: p-ERK IC50 (2 h; MIA PaCa-2), 2 h compound treatment.
Setting [5] is: A549, 2 h, read-out: p-ERK IC50 (2 h; A549), 2 h compound treatment.
Setting [6] is: Homo sapiens, MIA PaCa-2, 4 h, read-out: p-ERK IC50 (4 h; MIA PaCa-2), 4 h compound treatment.
Setting [7] is: A549, 4 h, read-out: p-ERK IC50 (4 h; A549), 4 h compound treatment.

pIC50: −log10 of the molar value. Like-named read-outs stand apart in the source and are kept apart here. Bounds are passed on as bounds.

Sequence of GDP-bound KRAS protein (aa 1-169), containing both G12C and C118A amino acid substitutions (P01116 1-169 isoform P01116-2 G12C/C118A): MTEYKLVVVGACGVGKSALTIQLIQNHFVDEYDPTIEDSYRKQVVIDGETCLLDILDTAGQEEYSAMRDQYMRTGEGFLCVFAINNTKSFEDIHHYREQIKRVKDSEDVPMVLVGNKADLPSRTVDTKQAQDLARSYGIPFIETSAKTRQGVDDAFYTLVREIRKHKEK

For the compound `C=CC(=O)N1CCN(c2nc(=O)n(-c3nccn3C(C)C)c3cc(-c4ccccc4F)c(Cl)cc23)[C@@H](C)C1` [Example 91, 6-Chloro-7-(2-fluorophenyl)-4-((2S)-2-methyl-4-(2-propenoyl)-1-piperazinyl)-1-(1-(2-propanyl)-1H-imidazol-2-yl)-2(1H)-quinazolinone], in test [1] (5 min compound pre-incubation), the “Coupled exchange IC50 (5 min)” value was 0.2 | nda μM. The pIC50 in test [2] (setting [4]) is 6.51; in test [3] (setting [5]), no more than 5.00.

Take `C=CC(=O)N1CCN(c2nc(=O)n(-c3ccccc3C)c3nc(-c4ccccc4F)c(Cl)cc23)[C@@H](C)C1` [Example 60-14, 6-chloro-7-(2-fluorophenyl)-1-(2-methylphenyl)-4-((2S)-2-methyl-4-(2-propenoyl)-1-piperazinyl)pyrido[2,3-d]pyrimidin-2(1H)-one]: in test [1] (5 min compound pre-incubation), the “Coupled exchange IC50 (5 min)” value is given as 2.24 | nda μM. For the same compound, the pIC50 in test [2] (setting [4]) is 6.02; in test [3] (setting [5]), no more than 5.00.

Turning to `C=CC(=O)N1CCN(c2nc(=O)n(-c3c(CC)cccc3CC)c3nc(Cl)c(Cl)cc23)[C@@H](C)C1` [Example 54-61, 6,7-dichloro-1-(2,6-diethylphenyl)-4-((2S)-2-methyl-4-(2-propenoyl)-1-piperazinyl) pyrido[2,3-d]pyrimidin-2(1H)-one], the “Coupled exchange IC50 (2 h)” value in test [1] is “nda | 0.379 μM”. In addition, the figures for the pIC50 in test [2] (setting [6]) and in test [3] (setting [7]) were 5.86 and no more than 4.95, respectively.

With `C=CC(=O)N1CCN(c2nc(=O)n(-c3ccccc3C(C)C)c3nc(-c4c(O)cccc4F)c(F)cc23)[C@@H](C)C1` (single isomer, unassigned) [Example 57-6-2], in test [1] (5 min compound pre-incubation), the “Coupled exchange IC50 (5 min)” value is reported as 0.208 | nda μM. The negative logarithm of the IC50 (pIC50) in test [2] (read-out: p-ERK IC50 (2 h; MIA PaCa-2), 2 h compound treatment) was 7.00; in test [3] (setting [5]) it was no more than 5.00.

In the case of `C=CC(=O)N1CCN(c2nc(=O)n(-c3ccccc3C)c3nc(-c4c(O)cccc4F)c(Cl)cc23)[C@@H](C)C1` [Example 60-15, 6-chloro-7-(2-fluoro-6-hydroxyphenyl)-1-(2-methylphenyl)-4-((2S)-2-methyl-4-(2-propenoyl)-1-piperazinyl)pyrido[2,3-d]pyrimidin-2(1H)-one], the “Coupled exchange IC50 (5 min)” value in test [1] (5 min compound pre-incubation) is recorded as 0.686 | nda μM. Besides, the negative-log IC50 (pIC50) in test [2] (setting [4]) is 6.31; in test [3] (setting [5]), no more than 5.00.

Take `C=CC(=O)N1CCN(c2nc(=O)n(CC3(C)CC3)c3nc(-c4c(O)cccc4F)c(Cl)cc23)[C@@H](C)C1` [Example 54-6, 6-chloro-7-(2-fluoro~ 6-hydroxyphenyl)-1-((1-methylcyclopropyl)methyl)-4-((2S)-2-methyl-4-(2-propenoyl)-1-piperazinyl) pyrido[2,3-d]pyrimidin-2(1H)-one]: the “Coupled exchange IC50 (5 min)” value in test [1] (5 min compound pre-incubation) is reported as 0.306 | nda μM. Moreover, the negative-log IC50 (pIC50) in test [2] (setting [4]) is 6.28; in test [3] (setting [5]) it was no more than 5.00.

For the compound `C=CC(=O)N1CCN(c2nc(=O)n(-c3ccc(OCCN=[N+]=[N-])cc3C(C)C)c3nc(N4CCCCC4)c(Cl)cc23)[C@@H](C)C1` [Example 117, 1-(4-(2-Azidoethoxy)-2-(2-propanyl)phenyl)-6-chloro-4-((2S)-2-methyl-4-(2-propenoyl)-1-piperazinyl)-7-(1-piperidinyl)pyrido[2,3-d]pyrimidin-2(1H)-one], the “Coupled exchange IC50 (2 h)” value in test [1] is on record as “nda | 0.916 μM”. The pIC50 is 5.31 in test [2] (setting [4]) and no more than 5.00 in test [3] (setting [5]).

Regarding `C=CC(=O)N1CCN(c2nc(=O)n(-c3ncccc3C(C)C)c3nc(-c4c(O)cccc4F)c(Cl)cc23)[C@@H](C)C1` [Example 54-57, 6-chloro-7-(2-fluoro-6-hydroxyphenyl)-4-((2S)-2-methyl-4-(2-propenoyl)-1-piperazinyl)-1-(3-(2-propanyl)-2-pyridinyl) pyrido[2,3-d]pyrimidin-2(1H)-one], the pIC50 in test [1] (read-out: Coupled exchange IC50 (5 min), 5 min compound pre-incubation) is 7.08; in test [2] (setting [4]) it was 7.28; in test [3] (setting [5]), no more than 5.00.

As to `C=CC(=O)N1CCN(c2nc(=O)n(-c3ccccc3C3CCC3)c3nc(-c4ccccc4F)c(Cl)cc23)[C@@H](C)C1` [Example 54-12, 6-chloro-1-(2-cydobutyl-phenyl)-7-(2-fluorophenyl)-4-((2S)-2-methyl-4-(2-propenoyl)-1-piperazinyl) pyrido[2,3-d]pyrirnidin-2(1H)-one], in test [1] (5 min compound pre-incubation), the “Coupled exchange IC50 (5 min)” value is given as 0.289 | nda μM. In addition, the pIC50 in test [2] (setting [4]) was 6.79; in test [3] (setting [5]), no more than 5.00.

`C=CC(=O)N1CCN(c2nc(=O)n(CC(C)(C)C)c3nc(-c4ccccc4F)c(Cl)cc23)CC1` [Example 60-6]: in test [1] (5 min compound pre-incubation), the “Coupled exchange IC50 (5 min)” value worked out at 1.85 µM. In test [1], the “Coupled exchange IC50 (2 h)” value stood at 0.161 µM. Also, the pIC50 was 5.98 in test [2] (setting [6]) and 4.17 in test [3] (setting [7]).

For the compound `C=CC(=O)N1CCN(c2nc(=O)n(-c3c(C)cncc3C)c3nc(-c4c(O)cccc4F)c(Cl)cc23)[C@@H](C)C1` [Example 54-41, 6-chloro-1-(3,5-dimethyl-4-pyridinyl)-7-(2-fluoro-6-hydroxyphenyl)-4-((2S)-2-methyl-4-(2-propenoyl)-1-piperazinyl) pyrido[2,3-d]pyrimidin-2(1H)-one], the “Coupled exchange IC50 (5 min)” value in test [1] (5 min compound pre-incubation) is on record as 0.724 | nda μM. The pIC50 in test [2] (setting [4]) was 5.54; in test [3] (setting [5]), no more than 5.00.

Turning to `C=CC(=O)N1CCN(c2nc(=O)n(C(CC)CC)c3nc(-c4c(C)ccc5[nH]ncc45)c(Cl)cc23)[C@@H](C)C1` [Example 60-32, 6-chloro-7-(5-methyl-1H-indazol-4-yl)-4-((2S)-2-methyl-4-(2-propenoyl)-1-piperazinyl)-1-(3-pentanyl)pyrido[2,3-d]pyrimidin-2(1H)-one], the “Coupled exchange IC50 (5 min)” value in test [1] (5 min compound pre-incubation) was determined as 0.392 µM. Besides, the “Coupled exchange IC50 (2 h)” value in test [1] was 0.157 µM. Besides, the negative logarithm of the IC50 (pIC50) was 6.66 in test [2] (setting [4]), 6.67 in test [2] (setting [6]), 4.06 in test [3] (setting [5]) and 4.19 in test [3] (setting [7]).

(Values after patent US11090304B2 (Amgen Inc., priority 2018, dated 2021).)
